The test system of this data set is mouse apolipoprotein B mRNA. The data set can be described thus: Inhibition of mouse apolipoprotein B mRNA levels in primary mouse hepatocytes, real-time PCR. It counts as cell-based. An outline of the steps: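 Primary CD-1 mouse hepatocytes transfected at 80% confluency with oligonucleotide plus 3.75 μg/mL LIPOFECTIN for 4-7 h, harvested 16-24 h after treatment. ApoB mRNA measured by real-time quantitative PCR against a standard curve of untreated-control mRNA, giving percent inhibition; GAPDH primers/probe also used.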
(Quantitative PCR measures a nucleic acid by following its amplification.)

In the oligonucleotide strings, read from the 5' end, every base follows the letter of its sugar. An asterisk marks phosphorothioate; unmarked linkages are phosphodiester. Other units and linkages are bracketed, terminal groups are in braces. A string of capitals states the bases alone. e = 2'-O-(2-methoxyethyl) (MOE); [5mC] = 5-methylcytosine; d = 2'-deoxy (DNA)

As to “147764 (eG*eT*e[5mC]*e[5mC]*e[5mC]*dT*dG*dA*dA*dG*dA*dT*dG*dT*d[5mC]*eA*eA*eT*eG*e[5mC]) [compound 147764]”, the “% INHIB” value (Table 3, 150 nM, averages from two experiments) is listed as 97%. Moreover, the “Percent Inhibition 50 nM” value (Table 4, 50 nM) came out at 48%. For the same substance, for the setting “Table 4, 150 nM”, the “Percent Inhibition 150 nM” value is given as 84%. Besides, the “Percent Inhibition 300 nM” value (Table 4, 300 nM) turned out to be 90%.

(Values after patent US7803930B2, “Antisense modulation of apolipoprotein B-expression” (Isis Pharmaceuticals, Inc., priority 2002, dated 2010).)
